According to patent US11999676B2, “Vesicular monoamine transporter-2 ligands and their use in the treatment of psychostimulant abuse” (priority 2016, dated 2024):

Key:
[1] = Microsomal stability assay, human liver microsomes; details: both, human, pooled liver microsomes; for CLint scaled at 0.08 µM: pH 7.4, Microsomal stability assays: Clearance; for half-life at 0.08 µM: pH 7.4, Microsomal stability assays: Half-life
Procedure: Each plate holds triplicate samples of two controls (0.4 mM) and up to 14 compounds (0.08 mM) in rat and human liver microsomes. Aliquots of each well of the plate (175 μl of each well) were transferred from the master plate into 5 assay plates. For 0-hr time point, pre-cooled (4° C.) internal standard (437.5 μL, 2 μM caffeine in methanol) was added to the first plate before the reaction starts. NADPH regenerating system solution A (6.05 ml, Fisher Scientific, #NC9255727) was combined with NADPH regenerating system solution B (1.21 ml, Fisher Scientific, #NC9016235) in potassium phosphate buffer (15.8 ml, 0.1 M, pH 7.4, 37° C.). The resulting NADPH solution (43.8 μl) was added to each well of all the 96-well assay plates and mixed with pipette briefly making the final protein and compound concentrations respectively: 0.5 mg/ml, 0.08 μM (0.4 μM for controls). Plates were sealed, and all plates except the 0-hr plate were incubated at 37° C., shaken at a speed of 60 rpm. A single assay plate was tested at each time point: 0.5 hr, 1 hr, 2 hr, and 4 hr. At each time point, 437.5 μL of pre-cooled internal standard was added each well of the plate to quench the reaction. […] 120 μl supernatant was transferred to a 96-well plate, centrifuged again and analyzed by UPLC-MS (Waters Inc., Milford, MA). The compounds and internal standard were detected by selected ion recording (SIR).
The amount of material was measured as a ratio of peak area to the internal standard and graphed. Using the slope from the initial linear portion of this curve, the degradation rate constant is calculated using equation [1].

[2] = target: hERG channel (Homo sapiens (Human), UniProt Q12809); assay: [3H]Dofetilide binding assay, HEK-293 cell membrane preparation; details: [3H]dofetilide, HEK-293 cell membranes; read-out: hERG Binding: Mean Ki ± Standard Deviation
Sequence of hERG channel (Q12809 whole entry): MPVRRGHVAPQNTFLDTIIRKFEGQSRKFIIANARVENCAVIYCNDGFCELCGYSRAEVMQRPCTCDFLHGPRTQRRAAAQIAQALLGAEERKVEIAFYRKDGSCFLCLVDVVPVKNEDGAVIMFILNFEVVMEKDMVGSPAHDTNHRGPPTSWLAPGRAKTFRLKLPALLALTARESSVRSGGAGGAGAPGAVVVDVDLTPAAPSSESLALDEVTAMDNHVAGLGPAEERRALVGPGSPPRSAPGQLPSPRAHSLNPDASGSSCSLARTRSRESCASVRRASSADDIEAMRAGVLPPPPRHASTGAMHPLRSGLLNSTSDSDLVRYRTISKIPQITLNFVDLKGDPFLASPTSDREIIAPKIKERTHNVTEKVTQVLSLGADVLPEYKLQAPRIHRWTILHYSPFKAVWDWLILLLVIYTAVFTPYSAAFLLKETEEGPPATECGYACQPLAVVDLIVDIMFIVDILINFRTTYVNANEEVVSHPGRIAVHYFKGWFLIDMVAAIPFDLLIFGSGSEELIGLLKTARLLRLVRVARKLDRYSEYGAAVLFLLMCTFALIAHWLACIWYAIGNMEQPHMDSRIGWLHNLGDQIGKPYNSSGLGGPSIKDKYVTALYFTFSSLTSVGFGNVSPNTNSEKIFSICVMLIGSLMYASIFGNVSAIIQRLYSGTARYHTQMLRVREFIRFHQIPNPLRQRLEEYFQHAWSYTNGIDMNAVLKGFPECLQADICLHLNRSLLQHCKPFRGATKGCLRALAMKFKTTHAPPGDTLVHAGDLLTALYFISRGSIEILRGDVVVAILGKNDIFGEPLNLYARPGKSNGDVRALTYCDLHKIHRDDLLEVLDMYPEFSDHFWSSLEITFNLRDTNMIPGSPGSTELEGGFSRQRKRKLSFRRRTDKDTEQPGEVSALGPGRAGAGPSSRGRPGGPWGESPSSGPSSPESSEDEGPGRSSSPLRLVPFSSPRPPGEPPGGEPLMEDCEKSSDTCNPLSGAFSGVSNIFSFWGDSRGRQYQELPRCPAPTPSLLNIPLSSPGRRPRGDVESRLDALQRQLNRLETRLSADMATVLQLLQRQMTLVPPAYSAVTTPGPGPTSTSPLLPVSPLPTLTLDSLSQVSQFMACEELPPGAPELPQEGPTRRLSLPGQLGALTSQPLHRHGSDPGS
Procedure: [^3H]Dofetilide binding assays were conducted using commercially available HEK-293 cell membranes which stably express the hERG channel. Membranes were suspended in assay buffer (50 mM Tris, 10 mM KCl, 1 mM MgCl2, pH 7.4) prior to the experiment. […] Aliquots of the HEK-293 cell membrane suspension which contained 5 μg membrane protein were added to tubes containing assay buffer, 5 nM [^3H]dofetilide and a range of concentrations of analog (10 nM-100 μM). Nonspecific binding was determined in the presence of amitriptyline (1 mM). Samples were incubated for 1 hr. at 24° C., followed by rapid filtration. […] The affinity for the [^3H]dofetilide binding site on the hERG channel expressed in the HEK-293 cellular membrane was determined from the analog concentration response curves.

[3] = target: VMAT2 (Rattus norvegicus (Rat), UniProt Q01827); assay: [3H]Dopamine ([3H]DA) uptake assay, vesicular preparation; type: biochemical; details: [3H]DA uptake, rat; read-out: VMAT2 (rat) Inhibition: Mean Ki ± Standard Deviation
[4] = Microsomal stability assay, rat liver microsomes; details: for CLint scaled at 0.08 µM / half-life at 0.08 µM: female, Sprague-Dawley, rat, liver microsomes; for CLint scaled at 0.08 µM: pH 7.4, Microsomal stability assays: Clearance; for half-life at 0.08 µM: pH 7.4, Microsomal stability assays: Half-life

SMILES	CLint scaled at 0.08 µM [1]	half-life at 0.08 µM [1]	Ki [2]	Ki [3]	CLint scaled at 0.08 µM [4]	half-life at 0.08 µM [4]	Microsomal stability assays: Half-life [4]	Microsomal stability assays: Clearance [4]
CC(Cc1ccccc1)NCCCc1ccc(Br)cc1 (stereo not drawn) [Compound 218]	9.5 mL/min/kg	132 min	421 ± 38.1 nM	14.2 ± 2.17 nM	–	–	–	–
CC(Cc1ccc(N)cc1)NCCCc1ccc(F)cc1 (stereo not drawn) [Compound 109]	25.2 mL/min/kg	48 min	2590 ± 792 nM	19.2 ± 4.43 nM	–	–	–	–
CC(Cc1ccc(F)cc1)NCCCc1ccnc2ccccc12 (stereo not drawn) [Compound 162]	102 mL/min/kg	12 min	2950 ± 1360 nM	30.5 ± 8.59 nM	–	–	–	–
CC(Cc1ccc(C(F)(F)F)cc1)NCCCc1ccncc1 (stereo not drawn) [Compound 165]	< 5.2 mL/min/kg	> 240 min	1890 ± 639 nM	53.2 ± 6.5 nM	–	–	–	–
FCC(Cc1ccccc1)NCCCc1ccccc1 (stereo not drawn) [Compound 98]	–	–	17100 ± 12100 nM	27.8 ± 5.29 nM	> 400 mL/min/kg	< 6 min	–	–
CC(Cc1ccc(F)cc1)NCCCc1ccc(NC=O)cc1 (stereo not drawn) [Compound 70]	23 mL/min/kg	54 min	2600 ± 711 nM	22.5 ± 4.48 nM	–	–	–	–
CC(Cc1ccc(Cl)cc1)NCCCc1ccc(N)cc1 (stereo not drawn) [Compound 62]	–	–	2380 ± 1120 nM	31.6 ± 4.66 nM	83 mL/min/kg	36 min	–	–
CC(Cc1ccc(F)cc1)NCCCc1ccc(F)cc1 (stereo not drawn) [Compound 190]	5.4 mL/min/kg	234 min	789 ± 221 nM	8.28 ± 0.736 nM	–	–	–	–
CC(Cc1ccc(Br)cc1)NCCCc1ccc(Cl)cc1 (stereo not drawn) [Compound 184]	–	–	196 ± 30.5 nM	9.06 ± 1.61 nM	452 mL/min/kg	–	6 min	–
CC(Cc1ccccc1)NCCCc1ccncc1 (stereo not drawn) [Compound 204]	5.8 mL/min/kg	216 min	8460 ± 4580 nM	49.1 ± 3.51 nM	–	–	–	–
FCC(Cc1ccc(F)cc1)NCCCc1ccc(F)cc1 (stereo not drawn) [Compound 152]	–	–	5700 ± 2970 nM	27.3 ± 12.8 nM	298 mL/min/kg	12 min	–	–
CC(Cc1ccc(F)cc1)NCCCc1ccc(Br)cc1 (stereo not drawn) [Compound 145]	–	–	506 ± 199 nM	22.1 ± 6.5 nM	402 mL/min/kg	–	6 min	–
CC(Cc1ccccc1)NCCCc1ccc(C(F)(F)F)cc1 (stereo not drawn) [Compound 194]	–	–	791 ± 270 nM	27.7 ± 7.81 nM	138 mL/min/kg	18 min	–	–
CC(Cc1ccc(N)cc1)NCCCc1ccc(F)cc1 (stereo not drawn) [Compound 111]	–	–	2500 ± 435 nM	16.7 ± 3.34 nM	–	–	144 min	19.5 mL/min/kg
CC(Cc1ccncc1)NCCCc1ccc(O)cc1 (stereo not drawn) [Compound 178]	–	–	5070 ± 71.4 nM	124 ± 29.4 nM	89.3 mL/min/kg	30 min	–	–
CC(Cc1ccc(F)cc1)NCCCc1ccc([N+](=O)[O-])cc1 (stereo not drawn) [Compound 160]	–	–	67.1 ± 14.7 nM	14.3 ± 2.2 nM	119 mL/min/kg	24 min	–	–
CC(Cc1ccc(Br)cc1)NCCCc1ccc(F)cc1 (stereo not drawn) [Compound 200]	–	–	242 ± 76 nM	15.2 ± 8.86 nM	186 mL/min/kg	18 min	–	–
CC(=O)Nc1ccc(CCCNC(C)Cc2ccc(F)cc2)cc1 (stereo not drawn) [Compound 66]	–	–	10100 ± 3350 nM	32.5 ± 3.52 nM	30.7 mL/min/kg	90 min	–	–
CC(Cc1ccc(NC=O)cc1)NCCCc1ccc(F)cc1 (stereo not drawn) [Compound 90]	–	–	738 ± 244 nM	12.7 ± 2.85 nM	–	–	114 min	24.9 mL/min/kg
CC(Cc1ccccc1)NCCCc1ccc(I)cc1 (stereo not drawn) [Compound 212]	–	–	642 ± 168 nM	22.2 ± 2.21 nM	–	–	6 min	439 mL/min/kg

SMILES	CLint scaled at 0.08 µM [1]	half-life at 0.08 µM [1]	Ki [2]	Ki [3]	CLint scaled at 0.08 µM [4]	half-life at 0.08 µM [4]	Microsomal stability assays: Half-life [4]	Microsomal stability assays: Clearance [4]
CC(Cc1ccccc1)NCCCc1ccc(S)cc1 (stereo not drawn) [Compound 216]	–	–	4190 ± 1080 nM	65.4 ± 23.4 nM	170 mL/min/kg	18 min	–	–
CC(Cc1ccc(F)c(F)c1)NCCCc1ccc(N)cc1 (stereo not drawn) [Compound 60]	–	–	3140 ± 1550 nM	48.3 ± 16.4 nM	30.7 mL/min/kg	60 min	–	–
CC(Cc1ccc(-c2cccnc2)cc1)NCCCc1ccc(F)cc1 (stereo not drawn) [Compound 192]	–	–	675 ± 127 nM	11.9 ± 9.94 nM	77.2 mL/min/kg	36 min	–	–
CC(Cc1ccccc1)NCCCc1ccc(I)cc1 (stereo not drawn) [Compound 215]	–	–	3040 ± 1370 nM	6.86 ± 1.81 nM	–	18 min	–	148 mL/min/kg
CC(Cc1ccc([N+](=O)[O-])cc1)NCCCc1ccc(F)cc1 (stereo not drawn) [Compound 119]	–	–	130 ± 25.6 nM	9.85 ± 1.62 nM	–	–	24 min	112 mL/min/kg
CC(Cc1ccc(-c2cncnc2)cc1)NCCCc1ccc(F)cc1 (stereo not drawn) [Compound 196]	–	–	402 ± 72.2 nM	7.12 ± 1.59 nM	14.7 mL/min/kg	192 min	–	–
CCOC(=O)c1ccc(CCCNC(C)Cc2ccc(F)cc2)cc1 (stereo not drawn) [Compound 158]	–	–	1410 ± 275 nM	42.8 ± 8.89 nM	120 mL/min/kg	24 min	–	–
CC(Cc1ccc(Br)cc1)NCCCc1ccc(I)cc1 (stereo not drawn) [Compound 180]	–	–	601 ± 195 nM	48.4 ± 19.4 nM	290 mL/min/kg	12 min	–	–
FCC(Cc1ccc(F)cc1)NCCCc1ccc(Cl)cc1 (stereo not drawn) [Compound 150]	–	–	2340 ± 1070 nM	39.1 ± 7.97 nM	540 mL/min/kg	–	6 min	–
FCC(Cc1ccccc1)NCCCc1ccc(F)cc1 (stereo not drawn) [Compound 101]	–	–	4800 ± 940 nM	14.7 ± 9.28 nM	253 mL/min/kg	12 min	–	–
CC(Cc1ccc([N+](=O)[O-])cc1)NCCCc1ccc(F)cc1 (stereo not drawn) [Compound 117]	–	–	206 ± 137 nM	7.08 ± 1.29 nM	148 mL/min/kg	18 min	–	–
CC(Cc1ccc(F)cc1)NCCCc1ccc(N)cc1 (stereo not drawn) [Compound 94]	–	–	3980 ± 3410 nM	84.6 ± 29.1 nM	119 mL/min/kg	24 min	–	–
CC(Cc1ccc(F)cc1)NCCCc1ccncc1 (stereo not drawn) [Compound 176]	–	–	3770 ± 2.04 nM	80.7 ± 21 nM	71.8 mL/min/kg	42 min	–	–
CC(Cc1ccc(-c2cncnc2)cc1)NCCCc1ccc(Cl)cc1 (stereo not drawn) [Compound 170]	–	–	199 ± 64.9 nM	6.74 ± 2.59 nM	34.2 mL/min/kg	84 min	–	–
CC(Cc1ccccc1)NCCCc1ccc(N)cc1 (stereo not drawn) [Compound 220]	–	–	5340 ± 5630 nM	40.4 ± 4.72 nM	65.3 mL/min/kg	42 min	–	–
CCC(Cc1ccccc1)NCCCc1ccc(O)cc1 (stereo not drawn) [Compound 207]	–	–	2380 ± 517 nM	37.8 ± 6.59 nM	> 400 mL/min/kg	< 6 min	–	–
CC(Cc1ccc(F)cc1)NCCCc1c[nH]c2ccccc12 (stereo not drawn) [Compound 91]	–	–	2200 ± 124 nM	36.5 ± 5.56 nM	> 400 mL/min/kg	< 6 min	–	–
CC(Cc1ccc(N)cc1)NCCCc1ccc(F)cc1 (stereo not drawn) [Compound 110]	–	–	2590 ± 792 nM	19.2 ± 4.43 nM	< 10 mL/min/kg	> 240 min	–	–
CC(Cc1ccc(F)c(F)c1)NCCCc1ccncc1 (stereo not drawn) [Compound 96]	–	–	4070 ± 734 nM	78.5 ± 15.8 nM	96.8 mL/min/kg	30 min	–	–
